Results on two compounds are retold here after US4258029A, “Synthetic adjuvants for stimulation of antigenic responses” (Connaught Laboratories Limited, priority 1979, dated 1981).

For data set [1], the system named is tetanus toxoid. The experiment in a line: Tetanus toxoid remaining in supernatant after stirring with octadecyl tyrosine. It counts as physicochemical. Conditions: pH 7.0, 24 hours room temperature. How it is done:
Tetanus toxoid solution (10 ml, 30 Lf/ml, pH 7.0) was placed in a container with a magnetic stirring bar. An ether solution of octadecyl tyrosine (0.3 ml, 30 mg/ml) was added, the mixture stirred rapidly and the ether removed under vacuum. The resulting cloudy solution was stirred at room temperature for 24 hours.
To tetanus toxoid solution (10 ml, 30 Lf/ml, pH 7.0) was added dry octadecyl tyrosine base (10 mg) and the mixture stirred for 24 hours at room temperature.

Data set [2] has as its system guinea pigs which had been sensitized to tetanus toxoid. The following applies: guinea pig, in vivo.
Data set [3] deals with tetanus toxoid. Set-up: species or system guinea pigs. Conditions: guinea pig, in vivo, sc.

On to `CCCCCCCCCCCCCCCCCCOC(=O)[C@@H](N)Cc1ccc(O)cc1` [octadecyl tyrosine], for which the “tetanus toxoid in supernatant, Procedure B” value in the data set on tetanus toxoid [1] (dry base 10 mg added to 10 ml toxoid 30 Lf/ml) was “no detectable tetanus toxoid”. In the data set on tetanus toxoid [1] (ether solution 0.3 ml, 30 mg/ml added to 10 ml toxoid 30 Lf/ml, after centrifuging), the “tetanus toxoid in supernatant, Procedure A” value is on record as “no detectable tetanus toxoid”.
In the case of Tetanus Toxoid, in data set [2], the “Diameter of skin reaction” value worked out at 17 ± 1.47 mm. In the data set with tetanus toxoid [3], the “Antibody Units/ml, 4 Weeks” value amounted to 1.39 ± 0.2 Units/ml and the “Antibody Units/ml, 61/2 weeks” value stood at 7.2 ± 1.2 Units/ml.
